From ChEMBL document CHEMBL6087412, “Discovery of cloxiquine derivatives as potent HDAC inhibitors for the treatment of melanoma via activating PPARγ” (Eur J Med Chem, 2025)
Blank lines part the entries; values can stand above or below the compound they belong to. Calls of active or inactive are those of the source. The rule behind the calls is not given here.

Legend:
A-375 = assay: cells; details: Homo sapiens, A-375, 72 h
Description: Antiproliferative activity against human A-375 cells assessed as inhibition of cell growth incubated for 72 hrs by MTT assay

SK-MEL-5 [1] = assay: cells; details: Homo sapiens, SK-MEL-5, 72 h
Description: Antiproliferative activity against human SK-MEL-5 cells assessed as inhibition of cell growth incubated for 72 hrs by MTT assay

in vitro = details: human, MRC5 cells
Description: Antiproliferative activity against human MRC5 cells assessed as inhibition of cell growth incubated for 72 hrs by MTT assay

SK-MEL-5 [2] = assay: Induction of apoptosis in human SK-MEL-5 cells assessed as early apoptotic cells at 0.2 uM incubated for 48 hrs by Annexin V-APC/7-AAD staining based flow cytometric analysis (reference value: 2.29 %); assay type: functional
Histone deacetylase 4 = Histone deacetylase 4 (Homo sapiens, UniProt P56524); assay: Inhibition of HDAC4 (unknown origin) using Ac-Leu-Gly-Lys(Tfa)-AMC as substrate by spectramax microplate reader analysis
SK-MEL-5 [3] = assay: Antiproliferative activity against human SK-MEL-5 cells assessed as upregulation of PPARgamma expression incubated for 48 hrs by Western blotting analysis; assay type: functional, cell-based
SK-MEL-5 [4] = assay: Antiproliferative activity against human SK-MEL-5 cells assessed as inhibition of cell growth incubated for 72 hrs in presence of GW9662 by MTT assay; assay type: functional, cell-based
SK-MEL-5 [5] = assay: Inhibition of glycolysis in human SK-MEL-5 cells assessed as reduction in lactate production at 2 uM incubated for 48 hrs in presence of GW9662 by chekineTM micro lactate Assay; assay type: functional, cell-based
SK-MEL-5 [6] = assay: Induction of cell cycle arrest in human SK-MEL-5 cells assessed as accumulation of cells at G0/G1 phase at 0.2 uM incubated for 48 hrs by propidium iodide staining based flow cytometry (reference value: 66.27 %); assay type: functional
SK-MEL-5 [7] = assay: Induction of cell cycle arrest in human SK-MEL-5 cells assessed as accumulation of cells at G0/G1 phase at 1 uM incubated for 48 hrs by propidium iodide staining based flow cytometry (reference value: 66.27 %); assay type: functional
SK-MEL-5 [8] = assay: Induction of cell cycle arrest in human SK-MEL-5 cells assessed as accumulation of cells at G0/G1 phase at 5 uM incubated for 48 hrs by propidium iodide staining based flow cytometry (reference value: 66.27 %); assay type: functional
SK-MEL-5 [9] = assay: Induction of cell cycle arrest in human SK-MEL-5 cells assessed as accumulation of cells at G2/M phase at 0.2 uM incubated for 48 hrs by propidium iodide staining based flow cytometry (reference value: 8.36 %); assay type: functional
SK-MEL-5 [10] = assay: Induction of cell cycle arrest in human SK-MEL-5 cells assessed as accumulation of cells at G2/M phase at 1 uM incubated for 48 hrs by propidium iodide staining based flow cytometry (reference value: 8.36 %); assay type: functional
SK-MEL-5 [11] = assay: Induction of cell cycle arrest in human SK-MEL-5 cells assessed as accumulation of cells at G2/M phase at 5 uM incubated for 48 hrs by propidium iodide staining based flow cytometry (reference value: 8.36 %); assay type: functional
SK-MEL-5 [12] = assay: Induction of cell cycle arrest in human SK-MEL-5 cells assessed as accumulation of cells at S phase at 0.2 uM incubated for 48 hrs by propidium iodide staining based flow cytometry (reference value: 25.36 %); assay type: functional
SK-MEL-5 [13] = assay: Induction of cell cycle arrest in human SK-MEL-5 cells assessed as accumulation of cells at S phase at 1 uM incubated for 48 hrs by propidium iodide staining based flow cytometry (reference value: 25.36 %); assay type: functional
SK-MEL-5 [14] = assay: Induction of cell cycle arrest in human SK-MEL-5 cells assessed as accumulation of cells at S phase at 5 uM incubated for 48 hrs by propidium iodide staining based flow cytometry (reference value: 25.36 %); assay type: functional
SK-MEL-5 [15] = assay: Induction of apoptosis in human SK-MEL-5 cells assessed as viable cells at 0.2 uM incubated for 48 hrs by Annexin V-APC/7-AAD staining based flow cytometric analysis (reference value: 95.77 %); assay type: functional; details: read-out: Activity
SK-MEL-5 [16] = assay: Induction of apoptosis in human SK-MEL-5 cells assessed as late apoptotic cells at 0.2 uM incubated for 48 hrs by Annexin V-APC/7-AAD staining based flow cytometric analysis (reference value: 0.9 %); assay type: functional
SK-MEL-5 [17] = assay: Induction of apoptosis in human SK-MEL-5 cells assessed as necrotic cells at 0.2 uM incubated for 48 hrs by Annexin V-APC/7-AAD staining based flow cytometric analysis (reference value: 1.05 %); assay type: functional
SK-MEL-5 [18] = assay: Induction of apoptosis in human SK-MEL-5 cells assessed as viable cells at 1 uM incubated for 48 hrs by Annexin V-APC/7-AAD staining based flow cytometric analysis (reference value: 95.77 %); assay type: functional; details: read-out: Activity
SK-MEL-5 [19] = assay: Induction of apoptosis in human SK-MEL-5 cells assessed as early apoptotic cells at 1 uM incubated for 48 hrs by Annexin V-APC/7-AAD staining based flow cytometric analysis (reference value: 2.29 %); assay type: functional
SK-MEL-5 [20] = assay: Induction of apoptosis in human SK-MEL-5 cells assessed as late apoptotic cells at 1 uM incubated for 48 hrs by Annexin V-APC/7-AAD staining based flow cytometric analysis (reference value: 0.9 %); assay type: functional
SK-MEL-5 [21] = assay: Induction of apoptosis in human SK-MEL-5 cells assessed as necrotic cells at 1 uM incubated for 48 hrs by Annexin V-APC/7-AAD staining based flow cytometric analysis (reference value: 1.05 %); assay type: functional
SK-MEL-5 [22] = assay: Induction of apoptosis in human SK-MEL-5 cells assessed as viable cells at 5 uM incubated for 48 hrs by Annexin V-APC/7-AAD staining based flow cytometric analysis (reference value: 95.77 %); assay type: functional; details: Homo sapiens, SK-MEL-5, read-out: Activity
SK-MEL-5 [23] = assay: Induction of apoptosis in human SK-MEL-5 cells assessed as early apoptotic cells at 5 uM incubated for 48 hrs by Annexin V-APC/7-AAD staining based flow cytometric analysis (reference value: 2.29 %); assay type: functional
SK-MEL-5 [24] = assay: Induction of apoptosis in human SK-MEL-5 cells assessed as late apoptotic cells at 5 uM incubated for 48 hrs by Annexin V-APC/7-AAD staining based flow cytometric analysis (reference value: 0.9 %); assay type: functional
SK-MEL-5 [25] = assay: Induction of apoptosis in human SK-MEL-5 cells assessed as necrotic cells at 5 uM incubated for 48 hrs by Annexin V-APC/7-AAD staining based flow cytometric analysis (reference value: 1.05 %); assay type: functional
SK-MEL-5 [26] = assay: Inhibition of cell migration in human SK-MEL-5 cells incubated for 24 hrs by scratch assay; assay type: functional, cell-based
SK-MEL-5 [27] = assay: Inhibition of cell invasion in human SK-MEL-5 cells at 0.2 to 5 uM incubated for 48 hrs by transwell assay; assay type: functional, cell-based; details: dose 0.2-5 µM
SK-MEL-5 [28] = assay: Antitumor activity against human SK-MEL-5 cells xenografted with BALB/c mouse assessed as tumor growth inhibition at 30 mg/kg,ip administrated for 21 consecutive days; assay type: functional; details: read-out: TGI
[29] = Toxicity in BALB/c mouse xenografted with human SK-MEL-5 cells assessed as body weight loss at 30 mg/kg,ip administrated for 21 consecutive days; assay type: organism-based; details: in vivo

Sequence of Histone deacetylase 4 (P56524 whole entry): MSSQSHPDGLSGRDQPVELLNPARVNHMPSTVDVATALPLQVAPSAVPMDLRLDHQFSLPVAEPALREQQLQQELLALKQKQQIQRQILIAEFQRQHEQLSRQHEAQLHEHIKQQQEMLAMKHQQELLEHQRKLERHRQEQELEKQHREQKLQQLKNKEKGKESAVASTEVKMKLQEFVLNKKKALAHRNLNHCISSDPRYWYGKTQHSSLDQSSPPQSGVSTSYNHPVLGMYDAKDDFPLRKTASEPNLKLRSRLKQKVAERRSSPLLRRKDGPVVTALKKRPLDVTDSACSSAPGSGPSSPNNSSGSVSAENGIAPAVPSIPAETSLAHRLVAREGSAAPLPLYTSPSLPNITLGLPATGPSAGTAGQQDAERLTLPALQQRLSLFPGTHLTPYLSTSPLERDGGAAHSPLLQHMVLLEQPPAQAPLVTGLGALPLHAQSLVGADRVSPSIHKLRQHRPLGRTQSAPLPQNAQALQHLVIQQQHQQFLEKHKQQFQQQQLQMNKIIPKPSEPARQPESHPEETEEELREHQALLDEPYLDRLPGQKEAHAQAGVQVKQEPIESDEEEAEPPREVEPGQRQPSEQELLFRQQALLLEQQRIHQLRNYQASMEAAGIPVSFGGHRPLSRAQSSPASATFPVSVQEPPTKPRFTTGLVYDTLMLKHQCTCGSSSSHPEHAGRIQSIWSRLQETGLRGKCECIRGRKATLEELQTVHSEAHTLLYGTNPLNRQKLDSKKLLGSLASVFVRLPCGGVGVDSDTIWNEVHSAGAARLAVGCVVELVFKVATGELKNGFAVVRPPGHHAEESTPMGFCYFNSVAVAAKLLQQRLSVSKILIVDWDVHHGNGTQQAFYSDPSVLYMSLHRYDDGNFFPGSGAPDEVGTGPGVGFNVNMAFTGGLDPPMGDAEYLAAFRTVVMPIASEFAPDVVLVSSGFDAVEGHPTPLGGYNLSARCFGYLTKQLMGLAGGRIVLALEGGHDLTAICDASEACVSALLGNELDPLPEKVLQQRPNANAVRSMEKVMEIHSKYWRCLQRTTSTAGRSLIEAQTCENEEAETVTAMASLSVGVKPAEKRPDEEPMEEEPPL

Structure (SMILES): O=C(CCCCOc1ccc(Cl)c2cccnc12)NO
IC50 (A-375): 22.2 µM | IC50 (SK-MEL-5 [1]): 21.6 µM | IC50 at 72 h (in vitro): > 50 µM

Structure (SMILES): O=C(NO)c1ccccc1COc1ccc(Cl)c2cccnc12
IC50 (A-375): 9.78 µM | IC50 (SK-MEL-5 [1]): 8.53 µM | IC50 at 72 h (in vitro): 21.3 µM

Structure (SMILES): O=C(CCCCCCOc1ccc(Cl)c2cccnc12)NO
IC50 (A-375): 3.68 µM | IC50 (SK-MEL-5 [1]): 3.47 µM | IC50 at 72 h (in vitro): 8.07 µM

Structure (SMILES): O=C(NO)c1cccc(COc2ccc(Cl)c3cccnc23)c1
IC50 (A-375): 29.5 µM | IC50 (SK-MEL-5 [1]): 24.2 µM | IC50 at 72 h (in vitro): > 50 µM

Structure (SMILES): O=C(CCCCCCOc1cccc2cccnc12)NO
Activity (SK-MEL-5 [2]): 3.68% | IC50 (Histone deacetylase 4): 19.3 µM | Activity (SK-MEL-5 [3]): Dose-dependent-effect | Activity (SK-MEL-5 [4]): inactive | inhibition (SK-MEL-5 [5]): inactive | Activity (SK-MEL-5 [6]): 64.96% | Activity (SK-MEL-5 [7]): 59.45% | Activity (SK-MEL-5 [8]): 50.23% | Activity (SK-MEL-5 [9]): 11.27% | Activity (SK-MEL-5 [10]): 16% | Activity (SK-MEL-5 [11]): 22.01% | Activity (SK-MEL-5 [12]): 23.77% | Activity (SK-MEL-5 [13]): 24.55% | Activity (SK-MEL-5 [14]): 27.75% | viability at 0.2 µM (SK-MEL-5 [15]): 92.7% | Activity (SK-MEL-5 [16]): 2.81% | Activity (SK-MEL-5 [17]): 0.85% | viability at 1 µM (SK-MEL-5 [18]): 77.8% | Activity (SK-MEL-5 [19]): 9.75% | Activity (SK-MEL-5 [20]): 8.03% | Activity (SK-MEL-5 [21]): 4.41% | viability at 5 µM (SK-MEL-5 [22]): 49.9% | Activity (SK-MEL-5 [23]): 35.15% | Activity (SK-MEL-5 [24]): 12.52% | Activity (SK-MEL-5 [25]): 2.39% | inhibition (SK-MEL-5 [26]): Dose-dependent-effect | inhibition (SK-MEL-5 [27]): Active | inhibition in vivo at 30 mg/kg (SK-MEL-5 [28]): 50.2% | Activity [29]: Non-toxic | IC50 (A-375): 1.2 µM | IC50 (SK-MEL-5 [1]): 0.93 µM | IC50 at 72 h (in vitro): 3.64 µM

Structure (SMILES): O=C(CCCCCOc1ccc(Cl)c2cccnc12)NO
IC50 (A-375): 15 µM | IC50 (SK-MEL-5 [1]): 13.7 µM | IC50 at 72 h (in vitro): 42.1 µM

The remaining lines, values ahead:

IC50 (A-375): > 50 µM | IC50 (SK-MEL-5 [1]): 46.6 µM | IC50 at 72 h (in vitro): > 50 µM
Structure (SMILES): O=C(NO)c1ccccc1COc1cccc2cccnc12

IC50 (A-375): 13.3 µM | IC50 (SK-MEL-5 [1]): 13.7 µM | IC50 at 72 h (in vitro): 29 µM
Structure (SMILES): O=C(NO)c1ccc(CCOc2cccc3cccnc23)cc1

IC50 (A-375): > 50 µM | IC50 (SK-MEL-5 [1]): > 50 µM | IC50 at 72 h (in vitro): > 50 µM
Structure (SMILES): O=C(Cc1ccc(COc2cccc3cccnc23)cc1)NO

IC50 (A-375): 22.7 µM | IC50 (SK-MEL-5 [1]): 17.4 µM | IC50 at 72 h (in vitro): > 50 µM
Structure (SMILES): O=C(CCc1ccc(COc2ccc(Cl)c3cccnc23)cc1)NO

IC50 (A-375): 6.57 µM | IC50 (SK-MEL-5 [1]): 6.27 µM | IC50 at 72 h (in vitro): 19.5 µM
Structure (SMILES): O=C(CCCOc1ccc(Cl)c2cccnc12)NO
